Target: T1, recombinant human cGAS (aa147-522) (Homo sapiens, UniProt Q8N884)
T1 construct: recombinant human cGAS (aa147-522); His6-SUMO (cleaved yes); made in house; host or cells: E. coli BL21/pLys
Assay: In vitro inhibition assay of cGAS activity (ATP consumption, KinaseGlo Max)
Assay type: biochemical
Details: Table 2, read-out: cGAS Inhibition Results IC50
In short: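 De-tagged recombinant human cGAS (aa147-522, 1.5 μg/mL) was incubated 20 min at 37 °C with herring testis DNA, 6.6 μM ATP and 0.1 mM GTP in Tris pH 7.5/MgCl2 buffer plus serial compound dilutions. Remaining ATP was read by KinaseGlo Max luminescence, and IC50 was fitted from % ATP consumption versus log concentration.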

T1 sequence (Q8N884 147-522): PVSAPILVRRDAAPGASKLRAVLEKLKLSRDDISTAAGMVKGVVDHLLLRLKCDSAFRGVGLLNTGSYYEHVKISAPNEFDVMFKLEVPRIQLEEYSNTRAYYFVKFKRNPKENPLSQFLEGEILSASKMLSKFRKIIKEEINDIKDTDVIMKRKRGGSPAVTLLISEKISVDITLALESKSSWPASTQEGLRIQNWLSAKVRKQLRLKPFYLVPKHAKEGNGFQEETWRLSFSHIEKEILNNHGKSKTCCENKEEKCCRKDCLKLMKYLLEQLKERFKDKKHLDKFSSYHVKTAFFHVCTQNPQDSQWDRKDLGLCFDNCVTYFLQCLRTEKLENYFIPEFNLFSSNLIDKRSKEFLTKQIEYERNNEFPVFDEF

Compound | IC50 [nM]
O=C(O)[C@@H]1CCCCN1c1cc(-c2cn[nH]c2)c2ccc(Cl)c(Cl)c2n1 [I-128] | 2000 to 30000
C[C@H](CO)N(C)c1cc(-n2ccnc2)c2ccc(Cl)c(Cl)c2n1 [I-242] | < 2000
O=C(O)[C@@H]1C[C@H](Oc2ccccc2)CN1c1cc(-c2cn[nH]c2)c2ccc(Cl)c(Cl)c2n1 [I-360] | < 2000
Cc1cc(N2CCCC(O)CC2)c2ccc(Cl)c(Cl)c2n1 (stereo not shown) [I-311] | > 30000
Cn1cc(-c2cc(NCC(=O)O)c3ccc(Cl)c(Cl)c3n2)cn1 [I-425] | > 30000
OCCNc1cc(-c2cn[nH]c2)nc2c(Cl)c(Cl)ccc12 [I-289, 2-((7,8-dichloro-2-(1H-pyrazol-4-yl)quinolin-4-yl)amino)ethan-1-ol] | 2000 to 30000
O=C1CN(c2cc(Cl)nc3c(Cl)c(Cl)ccc23)CCN1 [I-307] | > 30000
NS(=O)(=O)CCNc1cc(-c2cn[nH]c2)c2ccc(Cl)c(Cl)c2n1 [I-203] | < 2000
COC(CN(C)c1cc(-n2ccnc2)c2ccc(Cl)c(Cl)c2n1)OC [I-364] | 2000 to 30000
Cc1cc(NCCC(=O)O)c2ccc(Cl)c(Cl)c2n1 [I-309] | > 30000
CC(C)[C@H](NC(=O)C[C@@H]1CCCN1c1cc(-n2ccnc2)c2ccc(Cl)c(Cl)c2n1)C(=O)O [I-338] | < 2000
O=S1(=O)CCN(c2cc(-n3ccnc3)c3ccc(Cl)c(Cl)c3n2)CC1 [I-87] | 2000 to 30000
O=C(O)[C@@H]1C[C@@H](Oc2ccccc2)CN1c1cc(-n2ccnc2)c2ccc(Cl)c(Cl)c2n1 [I-362] | > 30000
CC(C)(C)c1cc(C(=O)O)cc(-c2cc(-n3ccnc3)c3ccc(Cl)cc3n2)c1 [I-25] | > 30000
OCCCc1cc(-c2cn[nH]c2)c2ccc(Cl)c(Cl)c2n1 [I-271, 3-(7,8-dichloro-4-(1H-pyrazol-4-yl)quinolin-2-yl)propan-1-ol] | 2000 to 30000
O=C(O)COc1c(Br)ccc2c(-n3ccnc3)cc(-c3ccccc3)nc12 [I-379, 2-((7-bromo-4-(1H-imidazol-1-yl)-2-phenylquinolin-8-yl)oxy)acetic acid] | 2000 to 30000
OCC1COCCN1c1cc(-n2ccnc2)c2ccc(Cl)c(Cl)c2n1 (stereo not shown) [I-97] | 2000 to 30000

Compound | IC50 [nM]
Brc1ccc2nccc(-n3cccn3)c2c1 [I-415] | > 30000
O=C1NC(=O)/C(=C\c2cc(-n3ccnc3)c3ccc(Cl)c(Cl)c3n2)S1 [I-276, (E)-5-((7,8-dichloro-4-(1H-imidazol-1-yl)quinolin-2-yl)methylene)thiazolidine-2,4-dione] | < 2000
C[C@@H](Nc1cc(-c2cn[nH]c2)c2ccc(Cl)c(Cl)c2n1)C(=O)OC(C)(C)C [I-402] | 2000 to 30000
OCC(CO)Nc1cc(-n2ccnc2)c2ccc(Cl)c(Cl)c2n1 [I-249] | < 2000
COc1cccc(-c2cc(-n3ccnc3)c3ccc(Br)cc3n2)c1 [I-382] | 2000 to 30000
O=C(O)C1CCN(C(=O)C[C@@H]2CCCN2c2cc(-n3ccnc3)c3ccc(Cl)c(Cl)c3n2)C1 (stereo partly shown) [I-339] | < 2000
O=C(O)c1cc(-c2cc(-n3ccnc3)c3ccc(Cl)cc3n2)ccc1OC(F)(F)F [I-18] | 2000 to 30000
Clc1ccc2c(-n3ccnc3)cc(-c3cn[nH]c3)nc2c1Cl [I-378] | < 2000
OCC1CN(c2cc(-n3ccnc3)c3ccc(Cl)c(Cl)c3n2)CCO1 (stereo not shown) [I-98] | 2000 to 30000
COc1ccc(-c2cc(-n3ccnc3)c3ccc(Cl)c(Cl)c3n2)cc1O [I-41] | < 2000
CN(CCN1CCOCC1)c1cc(-c2cn[nH]c2)c2ccc(Cl)c(Cl)c2n1 [I-214] | 2000 to 30000
COc1ccc(-c2cc(-n3ccnc3)c3ccc(Cl)c(Cl)c3n2)cc1C#N [I-40] | > 30000
O=C(NO)[C@@H]1CCCN1c1cc(-n2ccnc2)c2ccc(Cl)c(Cl)c2n1 [I-449] | < 2000
CN(C)C(=O)CCN(C)c1cc(-c2cn[nH]c2)c2ccc(Cl)c(Cl)c2n1 [I-197] | < 2000
COc1ccc(-c2cc(-c3cn[nH]c3)c3ccc(Cl)c(Cl)c3n2)cc1C(=O)O [I-427] | < 2000
C[C@@H](CO)N(C)c1cc(-n2ccnc2)c2ccc(Cl)c(Cl)c2n1 [I-241] | < 2000

Now from value to compound:

IC50 [nM] | Compound
< 2000 | CS(=O)(=O)NC[C@@H]1CCCN1c1cc(-n2ccnc2)c2ccc(Cl)c(Cl)c2n1 [I-151]
> 30000 | O=C(CO)N1CCN(c2cc(-n3ccnc3)c3ccc(Cl)cc3n2)CC1 [I-77, 1-(4-(7-chloro-4-(1H-imidazol-1-yl)quinolin-2-yl)piperazin-1-yl)-2-hydroxyethan-1-one]
< 2000 | O=S(=O)(NC1CCCN(c2cc(-n3ccnc3)c3ccc(Cl)cc3n2)C1)c1ncc[nH]1 (stereo not shown) [I-101]
2000 to 30000 | CN(CC(N)=O)c1cc(-n2ccnc2)c2ccc(Cl)c(Cl)c2n1 [I-179]
2000 to 30000 | Cn1cnc(S(=O)(=O)NC2CCCN(c3cc(-n4ccnc4)c4ccc(Cl)cc4n3)C2)c1 (stereo not shown) [I-103]
2000 to 30000 | O=C(O)c1cc(-c2cc(-n3ccnc3)c3ccc(Cl)cc3n2)ccc1F [I-17]
< 2000 | NS(=O)(=O)C1CCN(c2cc(-n3ccnc3)c3ccc(Cl)c(Cl)c3n2)C1 (stereo not shown) [I-150]
> 30000 | O=C(O)c1cc(Br)cc(-c2cc(-n3ccnc3)c3ccc(Cl)cc3n2)c1 [I-27]
2000 to 30000 | CN(CCNS(=O)(=O)C1CC1)c1cc(-n2ccnc2)c2ccc(Cl)cc2n1 [I-226, N-(2-((7-chloro-4-(1H-imidazol-1-yl)quinolin-2-yl)(methyl)amino)ethyl)cyclopropanesulfonamide]
< 2000 | O=C(O)c1cc(O)cc(-c2cc(-n3ccnc3)c3ccc(Cl)cc3n2)c1 [I-26, 3-(7-chloro-4-(1H-imidazol-1-yl)quinolin-2-yl)-5-hydroxybenzoic acid]
2000 to 30000 | COc1ccc(C(=O)O)cc1-c1cc(-n2ccnc2)c2ccc(Cl)cc2n1 [I-30]
> 30000 | COC(=O)[C@H]1CCCN(c2cc(-n3ccnc3)c3ccc(Cl)cc3n2)C1 [I-356]
< 2000 | CN(CCS(N)(=O)=O)c1cc(-n2ccnc2)c2ccc(Cl)c(Cl)c2n1 [I-204]
2000 to 30000 | OCC1CN(c2cc(-n3ccnc3)c3ccc(Cl)cc3n2)CCCO1 (stereo not shown) [I-99]
< 2000 | O=C(O)c1cncc(-c2cc(-n3ccnc3)c3ccc(Cl)cc3n2)c1 [I-32]
< 2000 | Nc1cc(C(=O)O)cc(-c2cc(-n3ccnc3)c3ccc(Cl)cc3n2)c1 [I-22, 3-amino-5-(7-chloro-4-(1H-imidazol-1-yl)quinolin-2-yl)benzoic acid]
2000 to 30000 | O=C(O)[C@@H]1CCCN(c2cc(-n3ccnc3)c3ccc(Cl)cc3n2)C1 [I-357]
2000 to 30000 | Clc1ccc2c(-n3ccnc3)cc(-c3ccccc3)nc2c1 [I-1]
2000 to 30000 | O=C(O)CC1CCN(c2cc(-n3ccnc3)c3ccc(Cl)cc3n2)C1 (stereo not shown) [I-446]
> 30000 | NC1CCCN(c2cc(-n3ccnc3)c3ccc(Cl)cc3n2)C1 (stereo not shown) [I-108, 1-(7-chloro-4-(1H-imidazol-1-yl)quinolin-2-yl)piperidin-3-amine]

Same assay, conditions: Table 3, read-out: cGAS Inhibition Results IC50

Compound | IC50 [nM]
OC1CC2CCCC(C1)N2c1cc(-n2ccnc2)c2ccc(Cl)c(Cl)c2n1 (stereo not shown) [I-492] | 2000 to 30000
COC(=O)[C@@H]1C[C@H](C(F)(F)F)CN1c1cc(-n2ccnc2)c2ccc(Cl)c(Cl)c2n1 [I-462] | 2000 to 30000
CC(C)(O)[C@@H]1CCCN1c1cc(-n2ccnc2)c2ccc(Cl)c(Cl)c2n1 [I-484] | 2000 to 30000
O=C1NCC2CCC1N2c1cc(-n2ccnc2)c2ccc(Cl)c(Cl)c2n1 (stereo not shown) [I-503] | < 2000
O[C@@H]([C@@H]1CCCN1c1cc(-n2ccnc2)c2ccc(Cl)c(Cl)c2n1)C(F)(F)F [I-654, (S)-1-((S)-1-(7,8-dichloro-4-(1H-imidazol-1-yl)quinolin-2-yl)pyrrolidin-2-yl)-2,2,2-trifluoroethan-1-ol] | < 2000
NS(=O)(=O)CC1CCCN1C(=O)C[C@@H]1CCCN1c1cc(-n2ccnc2)c2ccc(Cl)c(Cl)c2n1 (stereo partly shown) [I-534] | 2000 to 30000
COC[C@@H]1CC[C@@H](C(=O)O)N1c1cc(-n2ccnc2)c2ccc(Cl)c(Cl)c2n1 [I-463] | 2000 to 30000
O=C(O)CCCCCOC[C@@H]1CCCN1c1cc(-n2ccnc2)c2ccc(Cl)c(Cl)c2n1 [I-675, (S)-6-((1-(7,8-dichloro-4-(1H-imidazol-1-yl)quinolin-2-yl)pyrrolidin-2-yl)methoxy)hexanoic acid] | < 2000
O[C@H]([C@@H]1CCCN1c1cc(-n2ccnc2)c2ccc(Cl)c(Cl)c2n1)C(F)(F)F [I-655, (R)-1-((S)-1-(7,8-dichloro-4-(1H-imidazol-1-yl)quinolin-2-yl)pyrrolidin-2-yl)-2,2,2-trifluoroethan-1-ol] | < 2000
O=C(O)c1ccc(OC[C@@H]2CCCN2c2cc(-n3ccnc3)c3ccc(Cl)c(Cl)c3n2)cc1 [I-737] | < 2000
NS(=O)(=O)C1CCN(C(=O)C[C@@H]2CCCN2c2cc(-n3ccnc3)c3ccc(Cl)c(Cl)c3n2)C1 (stereo partly shown) [I-537] | 2000 to 30000
CC1(C)C2[C@@H](C(=O)O)N(c3cc(-n4ccnc4)c4ccc(Cl)c(Cl)c4n3)C[C@@H]21 (stereo partly shown) [I-517] | < 2000
Nc1ccc(-c2cc(N3CCC[C@H]3COCCC(=O)O)nc3c(Cl)c(Cl)ccc23)cn1 [I-822, (S)-3-((1-(4-(6-aminopyridin-3-yl)-7,8-dichloroquinolin-2-yl)pyrrolidin-2-yl)methoxy)propanoic acid] | > 30000
COC(=O)[C@H]1[C@@H](O)CCN1c1cc(-n2ccnc2)c2ccc(Cl)c(Cl)c2n1 [I-500] | 2000 to 30000
O=C(O)Cc1csc(CNc2cc(-n3ccnc3)c3ccc(Cl)c(Cl)c3n2)n1 [I-881] | < 2000
O=C(O)C1CCN(C(=O)C[C@@H]2CCCN2c2cc(-n3ccnc3)c3ccc(Cl)c(Cl)c3n2)CC1 [I-529] | < 2000
O=C(O)CCOC[C@@H]1CCCN1c1cc(-c2ccoc2)c2ccc(Cl)c(Cl)c2n1 [I-824] | > 30000
COC(=O)[C@@H]1[C@H](OCC(=O)O)CCN1c1cc(-n2ccnc2)c2ccc(Cl)c(Cl)c2n1 [I-648] | 2000 to 30000

Further lines, results first:

IC50 [nM] | Compound
2000 to 30000 | CN(CCNC(=O)C1CCC(C(=O)O)C1)c1cc(-n2ccnc2)c2ccc(Cl)c(Cl)c2n1 (stereo not shown) [I-615]
2000 to 30000 | CN(CCNC(=O)CCO)c1cc(-n2ccnc2)c2ccc(Cl)c(Cl)c2n1 [I-614]
